Experimental findings from ChEMBL document CHEMBL1124295, “Synthesis and oral antiallergic activity of carboxylic acids derived from imidazo[2,1-c][1,4]benzoxazines, imidazo[1,2-a]quinolines, imidazo[1,2-a]quinoxalines, imidazo[1,2-a]quinoxalinones, pyrrolo[1,2-a]quinoxalinones, pyrrolo[2,3-a]quinoxalinones, and imidazo[2,1-b]benzothiazoles” (1988) are described below.

By ED50 is commonly meant the dose that gives a 50% effect, or the effect in half of the subjects. By inhibition in vivo is commonly meant the share of the control response that was lost under treatment. The low end stands for a weak effect, the high end for a strong effect. Usually Inhibition stands for the share of the control response that was lost under treatment. A lower Inhibition goes with little suppression.

The source made the active and inactive calls. The calls are words filed in the database; no cut-off is given here.

Assay [1] concerns Rattus norvegicus. Briefly: Inhibition of the IgE-mediated passive cutaneous anaphylaxis (PCA) reaction in rat after intravenous administration; Range 0.22-0.59. It counts as functional.
In assay [2] the test system is Rattus norvegicus. Briefly: Inhibition of the IgE-mediated passive cutaneous anaphylaxis (PCA) reaction in rat after oral administration; NA means inactive at 1 and 10 mg/Kg. It counts as functional, organism-based.
In assay [3] the test system is Rattus norvegicus. Briefly: Inhibition of the IgE-mediated passive cutaneous anaphylaxis (PCA) reaction in rat after intravenous administration; Range 0.43-0.74. It is filed as functional.
Assay [4] concerns Rattus norvegicus. Nature of the assay: Inhibition of the IgE-mediated passive cutaneous anaphylaxis (PCA) reaction in rat after oral administration; Inactive(45% inhibition at 20 mg/kg). It counts as functional.
For assay [5], the system named is Rattus norvegicus. Briefly: Inhibition of the IgE-mediated passive cutaneous anaphylaxis (PCA) reaction in rat after intravenous administration; Range 0.058-0.12. It is filed as functional.
The subject of assay [6] is Rattus norvegicus. Nature of the assay: Inhibition of the IgE-mediated passive cutaneous anaphylaxis (PCA) reaction in rat after oral administration; Range 0.29-6.49. It counts as functional.
Assay [7] has as its system Rattus norvegicus. Briefly: Inhibition of the IgE-mediated passive cutaneous anaphylaxis (PCA) reaction in rat after oral administration; Range 0.21-7.6. It is filed as functional.
Assay [8] has as its system Rattus norvegicus. Briefly: Inhibition of the IgE-mediated passive cutaneous anaphylaxis (PCA) reaction in rat after oral administration; Range 12.3-33.8. It is filed as functional.
Assay [9] relates to Rattus norvegicus. Nature of the assay: Inhibition of the IgE-mediated passive cutaneous anaphylaxis (PCA) reaction in rat after intravenous administration; Range 0.08-1.71. It is filed as functional.
Assay [10] concerns Rattus norvegicus. Briefly: Inhibition of the IgE-mediated passive cutaneous anaphylaxis (PCA) reaction in rat after intravenous administration; Range 0.043-0.12. It counts as functional.
Assay [11] concerns Rattus norvegicus. Nature of the assay: Inhibition of the IgE-mediated passive cutaneous anaphylaxis (PCA) reaction in rat after oral administration; Range 0.74-2.02. It counts as functional.
Assay [12] has as its system Rattus norvegicus. Nature of the assay: Inhibition of the IgE-mediated passive cutaneous anaphylaxis (PCA) reaction in rat after intravenous administration; Range 0.047-0.108. It is filed as functional.
For assay [13], the system named is Rattus norvegicus. Briefly: Inhibition of the IgE-mediated passive cutaneous anaphylaxis (PCA) reaction in rat after oral administration; NA means inactive. It is filed as functional, organism-based.
In assay [14] the test system is Rattus norvegicus. Nature of the assay: Inhibition of the IgE-mediated passive cutaneous anaphylaxis (PCA) reaction in rat after intravenous administration; Range 0.39-0.96. It counts as functional.
Assay [15] deals with Rattus norvegicus. Briefly: Inhibition of the IgE-mediated passive cutaneous anaphylaxis (PCA) reaction in rat after oral administration; Range 0.031-0.15. It is filed as functional.
The test system of assay [16] is Rattus norvegicus. Nature of the assay: Inhibition of the IgE-mediated passive cutaneous anaphylaxis (PCA) reaction in rat after intravenous administration; Range 0.052-0.43. It is filed as functional.
Assay [17] concerns Rattus norvegicus. Briefly: Inhibition of the IgE-mediated passive cutaneous anaphylaxis (PCA) reaction in rat after intravenous administration; Range 0.066-0.453. It counts as functional.
Assay [18] relates to Rattus norvegicus. Briefly: Inhibition of the IgE-mediated passive cutaneous anaphylaxis (PCA) reaction in rat after oral administration; Range 0.021-0.089. It is filed as functional.
The test system of assay [19] is Rattus norvegicus. Briefly: Inhibition of the IgE-mediated passive cutaneous anaphylaxis (PCA) reaction in rat after intravenous administration; Range 0.0103-0.0214. It is filed as functional.
In assay [20] the test system is Rattus norvegicus. Briefly: Inhibition of the IgE-mediated passive cutaneous anaphylaxis (PCA) reaction in rat after oral administration; Range 1.88-2.85. It counts as functional.
For assay [21], the system named is Rattus norvegicus. Nature of the assay: Inhibition of the IgE-mediated passive cutaneous anaphylaxis (PCA) reaction in rat after oral administration; Range 0.182-1.56. It is filed as functional.
For assay [22], the system named is Rattus norvegicus. Briefly: Inhibition of the IgE-mediated passive cutaneous anaphylaxis (PCA) reaction in rat after intravenous administration; Range 0.013-0.023. It is filed as functional.
Assay [23] deals with Rattus norvegicus. Briefly: Inhibition of the IgE-mediated passive cutaneous anaphylaxis (PCA) reaction in rat after oral administration; Range 0.06-0.199. It counts as functional.
The subject of assay [24] is Rattus norvegicus. Briefly: Inhibition of the IgE-mediated passive cutaneous anaphylaxis (PCA) reaction in rat after intravenous administration; Range 0.06-0.22. It is filed as functional.
For assay [25], the system named is Rattus norvegicus. Briefly: Inhibition of the IgE-mediated passive cutaneous anaphylaxis (PCA) reaction in rat after intravenous administration; Range 2.22-5.31. It counts as functional.
The test system of assay [26] is Rattus norvegicus. Briefly: Inhibition of the IgE-mediated passive cutaneous anaphylaxis (PCA) reaction in rat after oral administration; Range 0.65-6.05. It counts as functional.
Assay [27] concerns Rattus norvegicus. Briefly: Inhibition of the IgE-mediated passive cutaneous anaphylaxis (PCA) reaction in rat after oral administration of 10 mg/Kg of compound. It counts as functional.

Consider `C[S+](=N)([O-])c1cc2nc(C(=O)O)cn2c2ccccc12` (configuration not stated), for which it took a dose of 0.35 mg/kg to reach the 50% effect level in the assay with Rattus norvegicus [1] (ED50).
With `Nc1nnnn1C(=O)c1cn2c(n1)COc1ccccc1-2`, the ED50 entry in the assay with Rattus norvegicus [2] is “inactive”. In addition, in the assay on Rattus norvegicus [3], it took a dose of 0.58 mg/kg to reach the 50% effect level (ED50).
`O=C(O)c1nnn2c1c(O)nc1ccccc12` came in with an inhibition in vivo at 20 mg/kg with Rattus norvegicus [4] of 45%. In the assay on Rattus norvegicus [5], this compound came in with an ED50 of 0.084 mg/kg.
In the assay on Rattus norvegicus [6], `OCc1cn2c(n1)COc1ccccc1-2` came in with an ED50 of 2.73 mg/kg.
As for `O=Cc1cn2c(cc(Cl)c3ccc(Cl)cc32)n1`, in the assay on Rattus norvegicus [7], the ED50 came to 0.5 mg/kg.
For the compound `O=C(O)c1cc2c(=O)n(-c3ccccc3)c3ccccc3n2c1`, the ED50 with Rattus norvegicus [8] was determined as 18.9 mg/kg.
Compound `O=C(O)c1cc2c(O)nc3ccccc3n2n1` yielded an ED50 in the assay on Rattus norvegicus [9] of 0.33 mg/kg.
In turn, `C[S+]([O-])c1ccc2ccc3nc(C(=O)O)cn3c2c1` (configuration not stated) registered an ED50 in the assay on Rattus norvegicus [10] of 0.076 mg/kg.
`CCCn1c(=O)c2nc(C(=O)OCC)cn2c2ccccc21` yielded an ED50 with Rattus norvegicus [11] of 1.21 mg/kg.
`CC(=O)Nc1ccc2c(c1)-n1cc(C(=O)O)nc1CO2` registered an ED50 in the assay on Rattus norvegicus [12] of 0.073 mg/kg. Besides, the ED50 result in the assay with Rattus norvegicus [13] is “inactive”.
In the assay with Rattus norvegicus [14], `COc1ccc2c(c1)sc1nc(C(=O)O)cn12` returned an ED50 of 0.62 mg/kg.
For `O=Cc1cn2c(cnc3ccccc32)n1`, the ED50 with Rattus norvegicus [15] came to 0.073 mg/kg; in the assay with Rattus norvegicus [16], 0.137 mg/kg.
As for `OCc1cn2c(cnc3ccccc32)n1`, the ED50 was determined as 0.156 mg/kg in the assay with Rattus norvegicus [17] and 0.061 mg/kg in the assay on Rattus norvegicus [18].
Consider `O=C(O)C(=O)Nc1ccc2c(c1)-n1cc(C(=O)O)nc1CO2`, for which it took a dose of 0.0172 mg/kg to reach the 50% effect level in the assay on Rattus norvegicus [19] (ED50).
As to `CCn1c(=O)c2cc(C=O)cn2c2ccccc21`, in the assay with Rattus norvegicus [20], the 50% effect level (ED50) was put at a dose of 2.53 mg/kg.
Turning to `CCn1c(=O)c2cc(-c3nn[nH]n3)cn2c2ccccc21`, it took a dose of 0.44 mg/kg to reach the 50% effect level in the assay on Rattus norvegicus [21] (ED50).
With `CCCCn1c(=O)c2cc(C(=O)O)cn2c2ccc(Cl)cc21`, the ED50 turned out to be 0.019 mg/kg with Rattus norvegicus [22] and 0.114 mg/kg with Rattus norvegicus [23].
For the compound `CCn1c(=O)c2cc(C(=O)O)nn2c2ccccc21`, the ED50 in the assay with Rattus norvegicus [24] was found to be 0.11 mg/kg.
For the compound `COc1ccc2ccc3nc(CN)cn3c2c1.Cl.Cl`, the ED50 in the assay on Rattus norvegicus [25] was found to be 3.39 mg/kg.
Regarding `CC1(C)OCC(COC(=O)c2cn3c(ccc4ccccc43)n2)O1` (configuration not stated), the ED50 in the assay on Rattus norvegicus [26] was found to be 1.7 mg/kg.
On to `O=C(OCC(O)CO)c1cn2c(ccc3ccccc32)n1` (configuration not stated), for which, in the assay on Rattus norvegicus [27], the Inhibition amounted to 47%.
